Reference: the NIST ThermoML archive (doi:10.1016/j.jct.2018.11.004)

Experiment: molar heat capacity at constant pressure

CC(C)[C@@H]1CC[C@@H](C)C[C@H]1O [L-menthol]
Conditions | molar heat capacity at constant pressure [J/K/mol]
5 K, 101.33 kPa, Crystal 1, Small (less than 1 g) adiabatic calorimetry | 0.858
10 K, 101.33 kPa, Crystal 1, Small (less than 1 g) adiabatic calorimetry | 5.528
15 K, 101.33 kPa, Crystal 1, Small (less than 1 g) adiabatic calorimetry | 12.7
20 K, 101.33 kPa, Crystal 1, Small (less than 1 g) adiabatic calorimetry | 20.26
25 K, 101.33 kPa, Crystal 1, Small (less than 1 g) adiabatic calorimetry | 27.36
30 K, 101.33 kPa, Crystal 1, Small (less than 1 g) adiabatic calorimetry | 33.65
35 K, 101.33 kPa, Crystal 1, Small (less than 1 g) adiabatic calorimetry | 39.12
40 K, 101.33 kPa, Crystal 1, Small (less than 1 g) adiabatic calorimetry | 44.06
45 K, 101.33 kPa, Crystal 1, Small (less than 1 g) adiabatic calorimetry | 48.69
50 K, 101.33 kPa, Crystal 1, Small (less than 1 g) adiabatic calorimetry | 53.14
55 K, 101.33 kPa, Crystal 1, Small (less than 1 g) adiabatic calorimetry | 57.47
60 K, 101.33 kPa, Crystal 1, Small (less than 1 g) adiabatic calorimetry | 61.81
65 K, 101.33 kPa, Crystal 1, Small (less than 1 g) adiabatic calorimetry | 66.15
70 K, 101.33 kPa, Crystal 1, Small (less than 1 g) adiabatic calorimetry | 70.48
75 K, 101.33 kPa, Crystal 1, Small (less than 1 g) adiabatic calorimetry | 74.81
80 K, 101.33 kPa, Crystal 1, Small (less than 1 g) adiabatic calorimetry | 79.11
85 K, 101.33 kPa, Crystal 1, Small (less than 1 g) adiabatic calorimetry | 83.38
90 K, 101.33 kPa, Crystal 1, Small (less than 1 g) adiabatic calorimetry | 87.62
95 K, 101.33 kPa, Crystal 1, Small (less than 1 g) adiabatic calorimetry | 91.81
100 K, 101.33 kPa, Crystal 1, Small (less than 1 g) adiabatic calorimetry | 95.95
105 K, 101.33 kPa, Crystal 1, Small (less than 1 g) adiabatic calorimetry | 100
110 K, 101.33 kPa, Crystal 1, Small (less than 1 g) adiabatic calorimetry | 104
115 K, 101.33 kPa, Crystal 1, Small (less than 1 g) adiabatic calorimetry | 108
120 K, 101.33 kPa, Crystal 1, Small (less than 1 g) adiabatic calorimetry | 111.8
125 K, 101.33 kPa, Crystal 1, Small (less than 1 g) adiabatic calorimetry | 115.7
130 K, 101.33 kPa, Crystal 1, Small (less than 1 g) adiabatic calorimetry | 119.4
135 K, 101.33 kPa, Crystal 1, Small (less than 1 g) adiabatic calorimetry | 123.1
140 K, 101.33 kPa, Crystal 1, Small (less than 1 g) adiabatic calorimetry | 126.8
145 K, 101.33 kPa, Crystal 1, Small (less than 1 g) adiabatic calorimetry | 130.4
150 K, 101.33 kPa, Crystal 1, Small (less than 1 g) adiabatic calorimetry | 134
155 K, 101.33 kPa, Crystal 1, Small (less than 1 g) adiabatic calorimetry | 137.5
160 K, 101.33 kPa, Crystal 1, Small (less than 1 g) adiabatic calorimetry | 141.1
165 K, 101.33 kPa, Crystal 1, Small (less than 1 g) adiabatic calorimetry | 144.6
170 K, 101.33 kPa, Crystal 1, Small (less than 1 g) adiabatic calorimetry | 148.1
175 K, 101.33 kPa, Crystal 1, Small (less than 1 g) adiabatic calorimetry | 151.6
180 K, 101.33 kPa, Crystal 1, Small (less than 1 g) adiabatic calorimetry | 155.1
185 K, 101.33 kPa, Crystal 1, Small (less than 1 g) adiabatic calorimetry | 158.6
190 K, 101.33 kPa, Crystal 1, Small (less than 1 g) adiabatic calorimetry | 162.2
195 K, 101.33 kPa, Crystal 1, Small (less than 1 g) adiabatic calorimetry | 165.7
200 K, 101.33 kPa, Crystal 1, Small (less than 1 g) adiabatic calorimetry | 169.3
205 K, 101.33 kPa, Crystal 1, Small (less than 1 g) adiabatic calorimetry | 172.8
210 K, 101.33 kPa, Crystal 1, Small (less than 1 g) adiabatic calorimetry | 176.4
215 K, 101.33 kPa, Crystal 1, Small (less than 1 g) adiabatic calorimetry | 180
220 K, 101.33 kPa, Crystal 1, Small (less than 1 g) adiabatic calorimetry | 183.7
225 K, 101.33 kPa, Crystal 1, Small (less than 1 g) adiabatic calorimetry | 187.4
230 K, 101.33 kPa, Crystal 1, Small (less than 1 g) adiabatic calorimetry | 191.1
235 K, 101.33 kPa, Crystal 1, Small (less than 1 g) adiabatic calorimetry | 194.9
240 K, 101.33 kPa, Crystal 1, Small (less than 1 g) adiabatic calorimetry | 198.7
245 K, 101.33 kPa, Crystal 1, Small (less than 1 g) adiabatic calorimetry | 202.5
250 K, 101.33 kPa, Crystal 1, Small (less than 1 g) adiabatic calorimetry | 206.5
255 K, 101.33 kPa, Crystal 1, Small (less than 1 g) adiabatic calorimetry | 210.7
260 K, 101.33 kPa, Crystal 1, Small (less than 1 g) adiabatic calorimetry | 215.1
265 K, 101.33 kPa, Crystal 1, Small (less than 1 g) adiabatic calorimetry | 219.5
265.2 K, 100 kPa, Crystal 1, Extra sensitive DSC | 221.5
270 K, 100 kPa, Crystal 1, Extra sensitive DSC | 225.6
270 K, 101.33 kPa, Crystal 1, Small (less than 1 g) adiabatic calorimetry | 223.9
275 K, 100 kPa, Crystal 1, Extra sensitive DSC | 230
275 K, 101.33 kPa, Crystal 1, Small (less than 1 g) adiabatic calorimetry | 228.2
280 K, 100 kPa, Crystal 1, Extra sensitive DSC | 235.1
280 K, 101.33 kPa, Crystal 1, Small (less than 1 g) adiabatic calorimetry | 232.4
285 K, 100 kPa, Crystal 1, Extra sensitive DSC | 240.5
285 K, 101.33 kPa, Crystal 1, Small (less than 1 g) adiabatic calorimetry | 236.7
290 K, 100 kPa, Crystal 1, Extra sensitive DSC | 246.3
290 K, 101.33 kPa, Crystal 1, Small (less than 1 g) adiabatic calorimetry | 241.5
295 K, 100 kPa, Crystal 1, Extra sensitive DSC | 253.1
295 K, 101.33 kPa, Crystal 1, Small (less than 1 g) adiabatic calorimetry | 246.7
298.15 K, 101.33 kPa, Crystal 1, Small (less than 1 g) adiabatic calorimetry | 250.1
300 K, 101.33 kPa, Crystal 1, Small (less than 1 g) adiabatic calorimetry | 252.3
305 K, 101.33 kPa, Crystal 1, Small (less than 1 g) adiabatic calorimetry | 258.3
310 K, 101.33 kPa, Crystal 1, Small (less than 1 g) adiabatic calorimetry | 264.6
315 K, 101.33 kPa, Crystal 1, Small (less than 1 g) adiabatic calorimetry | 271.4
315.6 K, 101.33 kPa, Crystal 1, Small (less than 1 g) adiabatic calorimetry | 272.3

Liquid
Conditions | molar heat capacity at constant pressure [J/K/mol]
315.6 K, 101.33 kPa, Small (less than 1 g) adiabatic calorimetry | 376.1
320 K, 101.33 kPa, Small (less than 1 g) adiabatic calorimetry | 383.1
325 K, 101.33 kPa, Small (less than 1 g) adiabatic calorimetry | 390.8
325.9 K, 100 kPa, Extra sensitive DSC | 395.1
330 K, 100 kPa, Extra sensitive DSC | 401.1
330 K, 101.33 kPa, Small (less than 1 g) adiabatic calorimetry | 398.1
335 K, 100 kPa, Extra sensitive DSC | 408
335 K, 101.33 kPa, Small (less than 1 g) adiabatic calorimetry | 404.9
340 K, 100 kPa, Extra sensitive DSC | 414.3
340 K, 101.33 kPa, Small (less than 1 g) adiabatic calorimetry | 411.3
345 K, 100 kPa, Extra sensitive DSC | 420.5
345 K, 101.33 kPa, Small (less than 1 g) adiabatic calorimetry | 417.1
350 K, 100 kPa, Extra sensitive DSC | 426.2
350 K, 101.33 kPa, Small (less than 1 g) adiabatic calorimetry | 422.3
355 K, 100 kPa, Extra sensitive DSC | 430.8
355 K, 101.33 kPa, Small (less than 1 g) adiabatic calorimetry | 427
360 K, 101.33 kPa, Small (less than 1 g) adiabatic calorimetry | 431
365 K, 101.33 kPa, Small (less than 1 g) adiabatic calorimetry | 434.3
370 K, 101.33 kPa, Small (less than 1 g) adiabatic calorimetry | 437
